Patent US20040063662A1, “Selenophene anti-tumor agents” (priority 1996, published 2004)

Legend:
CCRF-CEM = experiment: NCI human tumor cell panel: CCRF-CEM (Leukemia); format: cell-based; conditions: Leukemia; for GI50: read-out: Log10 GI50 (converted); for IC (TGI): read-out: Log10 TGI (converted)
HL-60(TB) = experiment: NCI human tumor cell panel: HL-60(TB) (Leukemia); format: cell-based; conditions: Leukemia; for GI50: read-out: Log10 GI50 (converted)
K-562 = experiment: NCI human tumor cell panel: K-562 (Leukemia); format: cell-based; conditions: K562, K-562, Leukemia; for GI50: read-out: Log10 GI50 (converted); for IC (TGI): read-out: Log10 TGI (converted)
SR = experiment: NCI human tumor cell panel: SR (Leukemia); format: cell-based; conditions: Leukemia
HOP-62 = experiment: NCI human tumor cell panel: HOP-62 (Non-Small Cell Lung Cancer); format: cell-based; conditions: HOP-62, Non-Small Cell Lung Cancer; for GI50: read-out: Log10 GI50 (converted); for IC (TGI): read-out: Log10 TGI (converted)
NCI-H226 = experiment: NCI human tumor cell panel: NCI-H226 (Non-Small Cell Lung Cancer); format: cell-based; conditions: NCI-H226, Non-Small Cell Lung Cancer; for GI50: read-out: Log10 GI50 (converted); for IC (TGI): read-out: Log10 TGI (converted)
COLO 205 = experiment: NCI human tumor cell panel: COLO 205 (Colon Cancer); format: cell-based; conditions: COLO 205, Colon Cancer; for GI50: read-out: Log10 GI50 (converted); for IC (TGI): read-out: Log10 TGI (converted)
HCC-2998 = experiment: NCI human tumor cell panel: HCC-2998 (Colon Cancer); format: cell-based; conditions: HCC-2998, Colon Cancer; for GI50: read-out: Log10 GI50 (converted); for IC (TGI): read-out: Log10 TGI (converted)
HCT-15 = experiment: NCI human tumor cell panel: HCT-15 (Colon Cancer); format: cell-based; conditions: HCT-15, Colon Cancer; for GI50: read-out: Log10 GI50 (converted); for IC (TGI): read-out: Log10 TGI (converted)
KM12 = experiment: NCI human tumor cell panel: KM12 (Colon Cancer); format: cell-based; conditions: KM12, Colon Cancer; for GI50: read-out: Log10 GI50 (converted); for IC (TGI): read-out: Log10 TGI (converted)
SF-268 = experiment: NCI human tumor cell panel: SF-268 (CNS Cancer); format: cell-based; conditions: SF-268, CNS Cancer; for GI50: read-out: Log10 GI50 (converted); for IC (TGI): read-out: Log10 TGI (converted)
SNB-19 = experiment: NCI human tumor cell panel: SNB-19 (CNS Cancer); format: cell-based; conditions: SNB-19, CNS Cancer; for GI50: read-out: Log10 GI50 (converted); for IC (TGI): read-out: Log10 TGI (converted)
MALME-3M = experiment: NCI human tumor cell panel: MALME-3M (Melanoma); format: cell-based; conditions: MALME-3M, Melanoma; for GI50: read-out: Log10 GI50 (converted); for IC (TGI): read-out: Log10 TGI (converted)
UACC-257 = experiment: NCI human tumor cell panel: UACC-257 (Melanoma); format: cell-based; conditions: UACC-257, Melanoma; for GI50: read-out: Log10 GI50 (converted); for IC (TGI): read-out: Log10 TGI (converted)
UACC-62 = experiment: NCI human tumor cell panel: UACC-62 (Melanoma); format: cell-based; conditions: UACC-62, Melanoma; for GI50: read-out: Log10 GI50 (converted); for IC (TGI): read-out: Log10 TGI (converted)
OVCAR-4 = experiment: NCI human tumor cell panel: OVCAR-4 (Ovarian Cancer); format: cell-based; conditions: OVCAR-4, Ovarian Cancer; for GI50: read-out: Log10 GI50 (converted); for IC (TGI): read-out: Log10 TGI (converted)
OVCAR-5 = experiment: NCI human tumor cell panel: OVCAR-5 (Ovarian Cancer); format: cell-based; conditions: OVCAR-5, Ovarian Cancer; for GI50: read-out: Log10 GI50 (converted); for IC (TGI): read-out: Log10 TGI (converted)
CAKI-1 = experiment: NCI human tumor cell panel: CAKI-1 (Renal Cancer); format: cell-based; conditions: CAKI-1, Renal Cancer; for GI50: read-out: Log10 GI50 (converted); for IC (TGI): read-out: Log10 TGI (converted)
RXF-393 = experiment: NCI human tumor cell panel: RXF-393 (Renal Cancer); format: cell-based; conditions: RXF-393, Renal Cancer; for GI50: read-out: Log10 GI50 (converted); for IC (TGI): read-out: Log10 TGI (converted)
SN12C = experiment: NCI human tumor cell panel: SN12C (Renal Cancer); format: cell-based; conditions: Renal Cancer; for GI50: read-out: Log10 GI50 (converted); for IC (TGI): read-out: Log10 TGI (converted)
PC-3 = experiment: NCI human tumor cell panel: PC-3 (Prostate Cancer); format: cell-based; conditions: PC-3, Prostate Cancer; for GI50: read-out: Log10 GI50 (converted); for IC (TGI): read-out: Log10 TGI (converted)
DU-145 = experiment: NCI human tumor cell panel: DU-145 (Prostate Cancer); format: cell-based; conditions: DU-145, Prostate Cancer; for GI50: read-out: Log10 GI50 (converted); for IC (TGI): read-out: Log10 TGI (converted)
MCF7 = experiment: NCI human tumor cell panel: MCF7 (Breast Cancer); format: cell-based; conditions: MCF7, Breast Cancer; for GI50: read-out: Log10 GI50 (converted); for IC (TGI): read-out: Log10 TGI (converted)
MDA-MB-231/ATCC = experiment: NCI human tumor cell panel: MDA-MB-231/ATCC (Breast Cancer); format: cell-based; conditions: Homo sapiens, MDA-MB-231, MDA-MB-231/ATCC, Breast Cancer
HS 578T = experiment: NCI human tumor cell panel: HS 578T (Breast Cancer); format: cell-based; conditions: Breast Cancer; for GI50: read-out: Log10 GI50 (converted); for IC (TGI): read-out: Log10 TGI (converted)
T-47D = experiment: NCI human tumor cell panel: T-47D (Breast Cancer); format: cell-based; conditions: T47D, Breast Cancer; for GI50: read-out: Log10 GI50 (converted); for IC (TGI): read-out: Log10 TGI (converted)
HOP-92 = experiment: NCI human tumor cell panel: HOP-92 (Non-Small Cell Lung Cancer); conditions: for GI50: HOP-92, read-out: Log10 GI50 (converted); for IC (TGI): HOP-92, read-out: Log10 TGI
[1] = test system: panel of sixty different human tumor cell lines; experiment: NCI human tumor cell panel: whole panel (mean graph summary)
[2] = read-out: Log10 GI50 (converted)
[3] = read-out: Log10 TGI (converted)

Structure (SMILES): O=Cc1ccc(-c2ccc(-c3ccc(C=O)[se]3)[se]2)[se]1 [NSC 675245]
- GI50 (CCRF-CEM): > 100000 nM
- IC (TGI) (CCRF-CEM): > 100 µM
- GI50 (HL-60(TB)): > 100000 nM
- IC (TGI) (HL-60(TB); read-out: Log10 TGI): > 100 µM
- GI50 (K-562): 6.76 µM
- IC (TGI) (K-562): > 100 µM
- GI50 (SR; [2]): > 100 µM
- IC (TGI) (SR; [3]): > 100 µM
- GI50 (HOP-62): 51.3 µM
- IC (TGI) (HOP-62): > 100 µM
- GI50 (NCI-H226): 977 nM
- IC (TGI) (NCI-H226): 3.63 µM
- GI50 (COLO 205): > 100 µM
- IC (TGI) (COLO 205): > 100 µM
- GI50 (HCC-2998): 4.79 µM
- IC (TGI) (HCC-2998): > 100 µM
- GI50 (HCT-15): > 100 µM
- IC (TGI) (HCT-15): > 100 µM
- GI50 (KM12): > 100 µM
- IC (TGI) (KM12): > 100 µM
- GI50 (SF-268): > 100 µM
- IC (TGI) (SF-268): > 100 µM
- GI50 (SNB-19): 29.5 µM
- IC (TGI) (SNB-19): > 100 µM
- GI50 (MALME-3M): > 100 µM
- IC (TGI) (MALME-3M): > 100 µM
- GI50 (UACC-257): 324 nM
- IC (TGI) (UACC-257): 0.912 µM
- GI50 (UACC-62): 64.6 nM
- IC (TGI) (UACC-62): > 100 µM
- GI50 (OVCAR-4): 2630 nM
- IC (TGI) (OVCAR-4): > 100 µM
- GI50 (OVCAR-5): 776 nM
- IC (TGI) (OVCAR-5): > 100 µM
- GI50 (CAKI-1): 269 nM
- IC (TGI) (CAKI-1): 0.933 µM
- GI50 (RXF-393): 12 µM
- IC (TGI) (RXF-393): > 100 µM
- GI50 (SN12C): > 100 µM
- IC (TGI) (SN12C): > 100 µM
- GI50 (PC-3): > 100 µM
- IC (TGI) (PC-3): > 100 µM
- GI50 (DU-145): > 100 µM
- IC (TGI) (DU-145): > 100 µM
- GI50 (MCF7): 1480 nM
- IC (TGI) (MCF7): > 100 µM
- GI50 (MDA-MB-231/ATCC; [2]): > 100 µM
- IC (TGI) (MDA-MB-231/ATCC; [3]): > 100 µM
- GI50 (HS 578T): 87.1 µM
- IC (TGI) (HS 578T): > 100 µM
- GI50 (T-47D): 15.8 µM
- IC (TGI) (T-47D): > 100 µM
- GI50 (HOP-92): > 100 µM
- IC (TGI) (HOP-92): > 100 µM

Structure (SMILES): O=Cc1ccc(-c2ccc(-c3ccc[se]3)[se]2)[se]1 [NSC 675244]
- GI50 (CCRF-CEM): 2140 nM
- IC (TGI) (CCRF-CEM): 7.08 µM
- GI50 (HL-60(TB)): 2450 nM
- GI50 (K-562): 1.35 µM
- IC (TGI) (K-562): 33.1 µM
- GI50 (HOP-62): 12 µM
- IC (TGI) (HOP-62): 29.5 µM
- GI50 (NCI-H226): 2240 nM
- IC (TGI) (NCI-H226): 5.13 µM
- GI50 (COLO 205): 3.16 µM
- IC (TGI) (COLO 205): 12 µM
- GI50 (HCC-2998): 2.51 µM
- IC (TGI) (HCC-2998): 11.5 µM
- GI50 (HCT-15): 7.41 µM
- IC (TGI) (HCT-15): 26.3 µM
- GI50 (KM12): 6.31 µM
- IC (TGI) (KM12): 19.5 µM
- GI50 (SF-268): 4.47 µM
- IC (TGI) (SF-268): 57.5 µM
- GI50 (SNB-19): 10.2 µM
- IC (TGI) (SNB-19): 30.2 µM
- GI50 (MALME-3M): 12.6 µM
- IC (TGI) (MALME-3M): 28.2 µM
- GI50 (UACC-257): 309 nM
- IC (TGI) (UACC-257): 0.851 µM
- GI50 (UACC-62): 70.8 nM
- IC (TGI) (UACC-62): 10.7 µM
- GI50 (OVCAR-4): 1580 nM
- IC (TGI) (OVCAR-4): 14.8 µM
- GI50 (OVCAR-5): 550 nM
- IC (TGI) (OVCAR-5): 13.2 µM
- GI50 (CAKI-1): 204 nM
- IC (TGI) (CAKI-1): 0.708 µM
- GI50 (RXF-393): 1.95 µM
- IC (TGI) (RXF-393): 8.13 µM
- GI50 (SN12C): 10 µM
- IC (TGI) (SN12C): 22.4 µM
- GI50 (PC-3): 12 µM
- IC (TGI) (PC-3): 32.4 µM
- GI50 (DU-145): 12.6 µM
- IC (TGI) (DU-145): 25.1 µM
- GI50 (MCF7): 479 nM
- IC (TGI) (MCF7): 11.5 µM
- GI50 (HS 578T): 7.24 µM
- IC (TGI) (HS 578T): 21.9 µM
- GI50 (T-47D): 11.2 µM
- IC (TGI) (T-47D): 23.4 µM
- GI50 (HOP-92): 11 µM
- IC (TGI) (HOP-92): 25.7 µM
- GI50 ([1]; Homo sapiens, read-out: Log10 GI50, cell line not given (converted)): 3.8 µM
- CC50 ([1]; Homo sapiens, read-out: Log10 LC50, cell line not given (converted)): > 100 µM
- Log10 GI50 ([1]; cell line not given): −5.39
- Log10 TGI ([1]; cell line not given): −4.45
